For assay [1], the target named is T1, maltose-inducible α-glucosidase (MalL) (Bacillus subtilis, UniProt O06994, S135C).
T1 construct: full-length, recombinant, purified as in earlier work
The assay is described as follows: ensemble steady-state kinetics, colorimetric assay in solution. It is filed as biochemical. Particulars: free enzyme in solution; temperature of this constant not given.

Assay [2] has as its target T2, maltose-inducible α-glucosidase (MalL) (Bacillus subtilis, UniProt O06994).
T2 construct: full-length, recombinant, purified as in earlier work
Described as above. The conditions noted are these: free enzyme in solution; temperature of this constant not given. It is filed as biochemical. From the text: ensemble steady-state kinetics, colorimetric assay in solution on maltose-inducible α-glucosidase (MalL) | both the KM and ΔCP^‡ values are similar between WT MalL and S135C MalL

By Km is commonly meant the concentration of substrate that gives half-maximal velocity.

T1 sequence (O06994 whole entry S135C): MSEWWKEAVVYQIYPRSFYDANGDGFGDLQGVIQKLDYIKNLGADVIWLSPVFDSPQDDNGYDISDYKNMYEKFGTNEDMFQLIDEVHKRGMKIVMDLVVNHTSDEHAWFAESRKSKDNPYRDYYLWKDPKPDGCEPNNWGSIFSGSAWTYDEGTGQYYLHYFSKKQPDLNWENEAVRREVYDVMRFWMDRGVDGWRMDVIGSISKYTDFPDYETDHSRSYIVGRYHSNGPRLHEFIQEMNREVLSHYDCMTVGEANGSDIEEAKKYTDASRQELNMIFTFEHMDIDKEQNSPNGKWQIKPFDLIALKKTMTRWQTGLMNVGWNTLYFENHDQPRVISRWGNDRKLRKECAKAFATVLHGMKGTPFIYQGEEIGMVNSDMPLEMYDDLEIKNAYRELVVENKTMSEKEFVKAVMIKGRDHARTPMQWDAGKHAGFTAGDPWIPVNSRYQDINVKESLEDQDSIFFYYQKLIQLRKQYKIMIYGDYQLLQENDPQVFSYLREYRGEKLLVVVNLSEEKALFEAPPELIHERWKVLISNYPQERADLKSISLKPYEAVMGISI
T2 sequence (O06994 whole entry): as the sequence (O06994 whole entry S135C) above, with C135S counted along it

4-nitrophenyl-β-D-glucopyranoside: the Michaelis constant (Km) was determined as 141 ± 39.6 µM in assay [1] and 108 ± 34.2 µM in assay [2].

These data come from paper PMC8165693, “Sensing Enzyme Activation Heat Capacity at the Single-Molecule Level Using Gold-Nanorod-Based Optical Whispering Gallery Modes” (ACS Applied Nano Materials, 2021).
